From patent US20240194290A1, “HIDDEN ANTIBIOTICS IN THE HUMAN PROTEOME” (THE TRUSTEES OF THE UNIVERSITY OF PENNSYLVANIA, priority 2021, published 2024)
Ends that are not written are not given here.

Experiments:
Test in all cases: Outer membrane permeabilization (NPN uptake) assay
Conditions in all cases: peptides at MIC
P. aeruginosa PAO1 = format: cell-based, Pseudomonas aeruginosa
Description: (§1) FIG. 10. Membrane permeabilization and depolarization assays for several bacterial strains. […] FIG. 10B: Cytoplasmic membrane depolarization assays performed against P. aeruginosa PAO1 and the gut commensal B. fragilis ATCC25285.
(§2) Methods: Membrane depolarization assays. The cytoplasmic membrane depolarization activity of the peptides was determined by measurements of fluorescence of the membrane potential-sensitive dye, DiSC3(5). Briefly, A. baumannii ATCC19606, P. aeruginosa PAO1 and B. fragilis ATCC25285 were grown at 37° C. with agitation until they reached mid-log phase (OD600=0.5). […] Thereafter, the cells (100 μL) were incubated for 15 min with 20 nmol L^−1 of DiSC3(5) until a stable reduction of fluorescence was achieved, indicating the incorporation of the dye into the bacterial membrane. Membrane depolarization was then monitored by observing the change in the fluorescence emission intensity of the membrane potential-sensitive dye, DiSC3(5) (λex=622 nm, λem=670 nm), after the addition of peptides (100 μL solution at MIC values). […] The membrane permeability of the peptides was determined by using the N-phenyl-1-napthylamine (NPN) uptake assay. […] The background fluorescence was recorded at λex=350 nm and λem=420 nm. […]

B. fragilis ATCC25285 = format: cell-based, Bacteroides fragilis
Description: as §1, §2

S. epidermidis = format: cell-based, Staphylococcus epidermidis
Description: as §1, §2

Measured: outer membrane permeabilization (NPN)

SKEMFPRSFIKLLRSKVSRFLRPYK [SCUB1-SKE25]
permeabilized: all assays above
